Assay results from the NIST ThermoML archive (doi:10.1016/j.jct.2017.03.040).

Experiment: mn = molality of the nth substance listed, in mol/kg
Conditions: 100 kPa, Liquid; for speed of sound: Frequency=3 MHz, Single path-length method; for mass density: Vibrating tube method

CCCCCn1cc[n+](C)c1.[Br-] [1-pentyl-3-methylimidazolium bromide] + O
Conditions | mass density, 288.15 K [kg/m3] | mass density, 298.15 K [kg/m3] | mass density, 308.15 K [kg/m3] | mass density, 318.15 K [kg/m3] | speed of sound, 288.15 K [m/s] | speed of sound, 298.15 K [m/s] | speed of sound, 308.15 K [m/s] | speed of sound, 318.15 K [m/s]
m1 = 0.005 | 999.3 | 997.23 | 994.23 | 990.42 | 1467.7 | 1497.3 | 1520.3 | 1536.7
m1 = 0.01 | 999.5 | 997.42 | 994.42 | 990.62 | 1468.5 | 1498 | 1520.7 | 1537.4
m1 = 0.03 | 1000.31 | 998.19 | 995.2 | 991.41 | 1470.8 | 1500.3 | 1522.5 | 1539.1
m1 = 0.05 | 1001.11 | 998.96 | 995.98 | 992.21 | 1473.7 | 1502.8 | 1524.6 | 1541

N[C@@H](CS)C(=O)O [(R)-2-amino-3-mercaptopropanoic acid] + O
Conditions | mass density, 288.15 K [kg/m3] | mass density, 298.15 K [kg/m3] | mass density, 308.15 K [kg/m3] | mass density, 318.15 K [kg/m3] | speed of sound, 288.15 K [m/s] | speed of sound, 298.15 K [m/s] | speed of sound, 308.15 K [m/s] | speed of sound, 318.15 K [m/s]
m1 = 0.09747 | 1003.7 | 1001.64 | 998.63 | 994.82 | 1474 | 1503.6 | 1525.8 | 1541.9
m1 = 0.1985 | 1008.47 | 1006.41 | 1003.4 | 999.59 | 1481.8 | 1510.9 | 1532.2 | 1547.8
m1 = 0.2986 | 1013.2 | 1011.13 | 1008.12 | 1004.32 | 1489.5 | 1518 | 1538.6 | 1553.6
m1 = 0.3968 | 1017.83 | 1015.77 | 1012.76 | 1008.96 | 1497.1 | 1525.1 | 1544.9 | 1559.3
m1 = 0.4932 | 1022.38 | 1020.32 | 1017.31 | 1013.51 | 1504.5 | 1532 | 1551 | 1564.8
m1 = 0.6 | 1027.42 | 1025.36 | 1022.35 | 1018.55 | 1512.7 | 1539.6 | 1557.8 | 1571
m1 = 0.6922 | 1031.77 | 1029.71 | 1026.7 | 1022.9 | 1519.8 | 1546.2 | 1563.6 | 1576.4

CC(=O)N[C@@H](CS)C(=O)O [N-acetyl-L-cysteine] + O
Conditions | mass density, 288.15 K [kg/m3] | mass density, 298.15 K [kg/m3] | mass density, 308.15 K [kg/m3] | mass density, 318.15 K [kg/m3] | speed of sound, 288.15 K [m/s] | speed of sound, 298.15 K [m/s] | speed of sound, 308.15 K [m/s] | speed of sound, 318.15 K [m/s]
m1 = 0.09902 | 1003.53 | 1001.37 | 998.26 | 994.33 | 1472.9 | 1501.8 | 1523.8 | 1539.8
m1 = 0.1981 | 1007.96 | 1005.7 | 1002.49 | 998.44 | 1479.4 | 1507 | 1527.9 | 1543.2
m1 = 0.2976 | 1012.41 | 1010.05 | 1006.74 | 1002.57 | 1485.8 | 1512.3 | 1532.1 | 1546.7
m1 = 0.397 | 1016.85 | 1014.39 | 1010.98 | 1006.7 | 1492.3 | 1517.5 | 1536.3 | 1550.2
m1 = 0.4992 | 1021.42 | 1018.86 | 1015.35 | 1010.94 | 1498.9 | 1522.9 | 1540.6 | 1553.8
m1 = 0.5991 | 1025.88 | 1023.22 | 1019.61 | 1015.09 | 1505.4 | 1528.2 | 1544.8 | 1557.3
m1 = 0.6903 | 1029.96 | 1027.21 | 1023.51 | 1018.87 | 1511.3 | 1533 | 1548.6 | 1560.5
